Source: patent US10456394B2, “Tetrahydroquinoline substituted hydroxamic acids as selective histone deacetylase 6 inhibitors” (THE BOARD OF TRUSTEES OF THE UNIVERSITY OF ILLINOIS, priority 2016, dated 2019)

Key:
[1] = molecular target: Human HDAC1 (Homo sapiens (Human), UniProt Q13547); assay: HDAC enzyme activity inhibition assay, HDAC1; format: biochemical; details: Table 1; mean of two experiments ± standard deviation; 10-point assay from 30 μM, 3-fold serial dilution
[2] = molecular target: Human HDAC6 (Homo sapiens (Human), UniProt Q9UBN7); assay: HDAC enzyme activity inhibition assay, HDAC6; format: biochemical; details: Table 1; for IC50: mean of two experiments ± standard deviation, 10-point assay from 30 μM, 3-fold serial dilution; for Selectivity HDAC1/HDAC6: ratio of IC50 values
[3] = molecular target: HDAC2 (Homo sapiens (Human), UniProt Q92769); assay: HDAC enzyme activity inhibition assay, HDAC2; format: biochemical; details: Table 2; mean of two experiments
[4] = molecular target: HDAC3/NcoR2 complex (Homo sapiens (Human), UniProt O15379); assay: HDAC enzyme activity inhibition assay, HDAC3; format: biochemical; details: Table 2; mean of two experiments
[5] = molecular target: HDAC4 (Homo sapiens (Human), UniProt P56524); assay: HDAC enzyme activity inhibition assay, HDAC4; format: biochemical; details: Table 2; mean of two experiments
[6] = molecular target: HDAC5 (Homo sapiens (Human), UniProt Q9UQL6); assay: HDAC enzyme activity inhibition assay, HDAC5; format: biochemical; details: Table 2; mean of two experiments
[7] = molecular target: HDAC8 (Homo sapiens (Human), UniProt Q9BY41); assay: HDAC enzyme activity inhibition assay, HDAC8; format: biochemical
[8] = molecular target: HDAC9 (Homo sapiens (Human), UniProt Q9UKV0); assay: HDAC enzyme activity inhibition assay, HDAC9; format: biochemical; details: Table 2; mean of two experiments
[9] = molecular target: HDAC10 (Homo sapiens (Human), UniProt Q969S8); assay: HDAC enzyme activity inhibition assay, HDAC10; format: biochemical; details: Table 2; mean of two experiments
[10] = molecular target: HDAC11 (Homo sapiens (Human), UniProt Q96DB2); assay: HDAC enzyme activity inhibition assay, HDAC11; format: biochemical; details: Table 2; mean of two experiments
[11] = tested on: cardiac fibroblasts; assay: Tubulin acetylation in adult rat cardiac fibroblasts; format: cell-based; details: in comparison to the DMSO control (FIG. 2)
Method: The ability of the inhibitor to induce tubulin acetylation in cardiac fibroblasts was also determined and western blot is shown below.

[12] = tested on: GBM6 cells; assay: Growth inhibition of glioblastoma cell line GBM6; format: cell-based; details: FIG. 4
[13] = molecular target: HDAC7 (Homo sapiens (Human), UniProt Q8WUI4); assay: biochemical
[14] = tested on: symptomatic mutant HSPB1 mice; details: cited from earlier work
[15] = tested on: traumatic brain injury; details: following traumatic brain injury in rats; cited from earlier work
[16] = tested on: mice with colitis; details: treatment begun once colitis had developed; cited from earlier work

Sequence of Human HDAC1 (Q13547 whole entry): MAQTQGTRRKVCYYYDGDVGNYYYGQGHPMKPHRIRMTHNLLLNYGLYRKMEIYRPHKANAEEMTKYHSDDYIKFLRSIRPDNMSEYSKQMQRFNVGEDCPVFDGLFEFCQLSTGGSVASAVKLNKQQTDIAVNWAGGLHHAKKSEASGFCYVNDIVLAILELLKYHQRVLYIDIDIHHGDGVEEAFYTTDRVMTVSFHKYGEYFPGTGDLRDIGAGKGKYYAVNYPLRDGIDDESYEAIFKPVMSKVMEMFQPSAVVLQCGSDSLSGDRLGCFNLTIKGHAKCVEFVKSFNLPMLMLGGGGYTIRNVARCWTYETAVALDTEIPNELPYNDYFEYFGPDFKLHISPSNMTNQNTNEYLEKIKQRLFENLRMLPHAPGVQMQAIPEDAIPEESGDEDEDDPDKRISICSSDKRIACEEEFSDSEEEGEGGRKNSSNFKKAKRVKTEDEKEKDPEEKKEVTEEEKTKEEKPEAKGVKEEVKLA
Sequence of Human HDAC6 (Q9UBN7 whole entry): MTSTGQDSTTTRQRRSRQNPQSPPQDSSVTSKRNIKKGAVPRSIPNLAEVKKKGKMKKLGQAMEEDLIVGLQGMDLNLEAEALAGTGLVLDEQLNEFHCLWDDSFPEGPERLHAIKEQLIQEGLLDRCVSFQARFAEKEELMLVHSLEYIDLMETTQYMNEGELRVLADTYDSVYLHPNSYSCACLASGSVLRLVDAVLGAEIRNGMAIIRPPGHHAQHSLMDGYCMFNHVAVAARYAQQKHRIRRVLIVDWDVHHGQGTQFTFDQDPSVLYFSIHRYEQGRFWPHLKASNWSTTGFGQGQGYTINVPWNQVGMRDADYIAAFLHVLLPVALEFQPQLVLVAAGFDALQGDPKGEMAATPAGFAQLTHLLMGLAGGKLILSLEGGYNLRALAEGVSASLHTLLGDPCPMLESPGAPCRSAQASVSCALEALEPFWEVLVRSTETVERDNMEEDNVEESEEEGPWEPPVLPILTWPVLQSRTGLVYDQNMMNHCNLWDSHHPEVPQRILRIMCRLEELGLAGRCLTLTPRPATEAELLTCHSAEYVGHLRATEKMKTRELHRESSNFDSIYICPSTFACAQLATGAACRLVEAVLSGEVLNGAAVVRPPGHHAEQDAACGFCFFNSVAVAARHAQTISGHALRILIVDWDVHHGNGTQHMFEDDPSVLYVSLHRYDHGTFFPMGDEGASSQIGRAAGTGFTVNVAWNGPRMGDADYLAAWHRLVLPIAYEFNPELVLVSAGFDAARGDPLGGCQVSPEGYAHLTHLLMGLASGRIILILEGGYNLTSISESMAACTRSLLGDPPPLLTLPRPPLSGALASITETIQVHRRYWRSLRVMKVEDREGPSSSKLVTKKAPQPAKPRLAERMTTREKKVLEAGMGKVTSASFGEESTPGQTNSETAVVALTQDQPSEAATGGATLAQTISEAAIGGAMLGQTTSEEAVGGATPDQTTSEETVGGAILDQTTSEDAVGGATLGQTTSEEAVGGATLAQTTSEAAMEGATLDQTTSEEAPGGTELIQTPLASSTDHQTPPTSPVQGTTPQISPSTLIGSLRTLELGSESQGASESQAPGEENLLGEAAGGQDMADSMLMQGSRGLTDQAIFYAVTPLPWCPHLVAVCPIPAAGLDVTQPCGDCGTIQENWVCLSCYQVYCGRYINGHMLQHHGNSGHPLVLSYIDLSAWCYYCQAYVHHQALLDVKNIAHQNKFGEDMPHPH
Sequence of HDAC9 (Q9UKV0 whole entry): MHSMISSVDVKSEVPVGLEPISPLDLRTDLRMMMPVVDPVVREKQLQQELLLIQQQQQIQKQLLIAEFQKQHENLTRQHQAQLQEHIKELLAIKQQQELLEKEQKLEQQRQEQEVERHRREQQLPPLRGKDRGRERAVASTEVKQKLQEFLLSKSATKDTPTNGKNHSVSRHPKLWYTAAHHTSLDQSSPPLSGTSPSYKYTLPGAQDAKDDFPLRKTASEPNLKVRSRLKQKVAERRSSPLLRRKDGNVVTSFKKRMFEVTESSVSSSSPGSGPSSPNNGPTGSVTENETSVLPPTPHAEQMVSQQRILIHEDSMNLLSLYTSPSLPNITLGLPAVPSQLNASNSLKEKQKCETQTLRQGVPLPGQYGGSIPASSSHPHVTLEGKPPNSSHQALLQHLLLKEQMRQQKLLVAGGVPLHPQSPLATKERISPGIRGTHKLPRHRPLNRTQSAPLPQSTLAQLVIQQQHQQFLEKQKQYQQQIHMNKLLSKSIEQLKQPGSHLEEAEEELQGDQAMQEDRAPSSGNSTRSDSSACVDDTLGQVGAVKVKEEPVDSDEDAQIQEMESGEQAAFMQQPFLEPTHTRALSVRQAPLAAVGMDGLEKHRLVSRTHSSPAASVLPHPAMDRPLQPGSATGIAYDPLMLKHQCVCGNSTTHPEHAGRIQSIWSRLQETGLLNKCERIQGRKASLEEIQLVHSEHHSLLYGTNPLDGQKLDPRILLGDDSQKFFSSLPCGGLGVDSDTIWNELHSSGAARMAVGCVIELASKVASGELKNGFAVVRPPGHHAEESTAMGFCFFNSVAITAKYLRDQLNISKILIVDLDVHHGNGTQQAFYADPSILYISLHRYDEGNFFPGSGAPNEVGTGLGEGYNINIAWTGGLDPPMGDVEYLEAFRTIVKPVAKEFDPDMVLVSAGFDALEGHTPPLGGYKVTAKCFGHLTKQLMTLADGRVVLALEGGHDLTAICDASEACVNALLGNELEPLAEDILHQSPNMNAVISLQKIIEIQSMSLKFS
Sequence of HDAC2 (Q92769 whole entry): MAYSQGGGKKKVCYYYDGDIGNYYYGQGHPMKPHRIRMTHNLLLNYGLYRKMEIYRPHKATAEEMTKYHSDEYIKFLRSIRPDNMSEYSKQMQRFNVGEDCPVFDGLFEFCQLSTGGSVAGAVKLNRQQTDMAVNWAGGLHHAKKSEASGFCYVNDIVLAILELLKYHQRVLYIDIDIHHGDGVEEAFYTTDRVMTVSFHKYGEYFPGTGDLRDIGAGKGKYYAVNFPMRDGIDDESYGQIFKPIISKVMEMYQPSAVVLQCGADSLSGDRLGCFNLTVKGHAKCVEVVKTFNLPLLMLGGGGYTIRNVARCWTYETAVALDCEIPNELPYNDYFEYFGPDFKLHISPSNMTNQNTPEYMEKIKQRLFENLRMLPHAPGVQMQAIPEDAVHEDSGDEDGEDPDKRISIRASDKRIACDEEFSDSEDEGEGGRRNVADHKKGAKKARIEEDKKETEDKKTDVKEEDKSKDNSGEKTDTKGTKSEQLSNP
Sequence of HDAC3/NcoR2 complex (O15379 whole entry): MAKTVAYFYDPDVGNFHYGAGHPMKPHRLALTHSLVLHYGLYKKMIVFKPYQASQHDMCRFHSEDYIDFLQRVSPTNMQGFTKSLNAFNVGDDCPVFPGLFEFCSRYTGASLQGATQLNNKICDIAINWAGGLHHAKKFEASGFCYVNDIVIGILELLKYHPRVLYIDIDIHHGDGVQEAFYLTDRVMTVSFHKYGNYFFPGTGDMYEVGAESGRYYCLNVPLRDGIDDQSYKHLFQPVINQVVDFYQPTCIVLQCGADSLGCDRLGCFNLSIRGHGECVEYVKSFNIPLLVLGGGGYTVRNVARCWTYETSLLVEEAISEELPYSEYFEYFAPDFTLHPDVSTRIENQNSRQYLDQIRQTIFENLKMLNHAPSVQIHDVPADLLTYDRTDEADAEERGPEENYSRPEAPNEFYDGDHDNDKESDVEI
Sequence of HDAC3/NcoR2 complex (Q9Y618 395-489 partner): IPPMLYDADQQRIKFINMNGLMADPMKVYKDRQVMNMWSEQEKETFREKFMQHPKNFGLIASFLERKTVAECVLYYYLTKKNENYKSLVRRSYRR
Sequence of HDAC11 (Q96DB2 whole entry): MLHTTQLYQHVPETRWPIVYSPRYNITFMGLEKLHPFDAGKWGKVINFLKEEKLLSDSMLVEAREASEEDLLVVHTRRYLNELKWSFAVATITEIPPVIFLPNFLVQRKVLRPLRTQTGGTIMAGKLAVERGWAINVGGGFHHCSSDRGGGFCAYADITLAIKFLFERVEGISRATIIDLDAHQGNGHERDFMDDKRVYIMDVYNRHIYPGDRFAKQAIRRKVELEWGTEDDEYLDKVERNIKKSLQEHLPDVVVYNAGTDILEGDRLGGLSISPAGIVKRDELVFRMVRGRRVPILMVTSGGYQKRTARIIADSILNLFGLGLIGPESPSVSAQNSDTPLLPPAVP
Sequence of HDAC7 (Q8WUI4 whole entry): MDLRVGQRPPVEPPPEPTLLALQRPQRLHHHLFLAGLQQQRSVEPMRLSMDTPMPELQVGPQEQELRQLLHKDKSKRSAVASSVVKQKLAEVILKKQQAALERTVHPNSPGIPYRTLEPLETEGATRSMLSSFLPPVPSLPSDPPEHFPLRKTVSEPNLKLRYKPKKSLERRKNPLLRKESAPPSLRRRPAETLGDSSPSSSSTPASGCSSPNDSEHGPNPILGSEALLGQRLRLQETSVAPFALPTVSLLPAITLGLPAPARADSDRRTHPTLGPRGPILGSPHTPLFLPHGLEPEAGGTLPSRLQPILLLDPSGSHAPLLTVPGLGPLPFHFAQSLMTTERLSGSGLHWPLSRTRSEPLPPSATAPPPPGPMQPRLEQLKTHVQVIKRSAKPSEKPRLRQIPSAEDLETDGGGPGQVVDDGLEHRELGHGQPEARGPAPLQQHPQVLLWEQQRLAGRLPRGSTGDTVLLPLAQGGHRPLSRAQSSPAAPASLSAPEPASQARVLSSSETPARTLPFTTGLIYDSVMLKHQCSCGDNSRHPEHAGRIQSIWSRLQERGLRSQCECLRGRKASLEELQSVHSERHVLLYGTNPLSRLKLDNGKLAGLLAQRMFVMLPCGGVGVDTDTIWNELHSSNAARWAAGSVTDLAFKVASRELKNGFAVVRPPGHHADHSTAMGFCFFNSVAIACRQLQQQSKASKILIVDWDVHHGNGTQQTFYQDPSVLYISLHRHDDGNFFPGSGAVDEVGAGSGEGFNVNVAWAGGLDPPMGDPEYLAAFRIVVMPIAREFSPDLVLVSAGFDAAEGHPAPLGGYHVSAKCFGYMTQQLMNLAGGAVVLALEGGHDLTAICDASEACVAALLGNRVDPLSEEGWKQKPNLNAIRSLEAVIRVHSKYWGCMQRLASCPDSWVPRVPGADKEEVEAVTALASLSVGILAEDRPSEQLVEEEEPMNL

Row | IC50 [1] [nM] | IC50 [2] [nM] | Selectivity HDAC1/HDAC6 [2] | Structure (SMILES) | further results
1 | 21200 ± 1150 | 12.4 ± 5.5 | 1706 | O=C(NO)c1ccc(CN2CCCc3cc(Cl)ccc32)c(F)c1 [Example 3, 4-((6-chloro-3,4-dihydroquinolin-1(2H)-yl)methyl)-3-fluoro-N-hydroxybenzamide] | –
2 | – | – | – | O=C(NO)c1ccc(CN2CCCc3cc(Cl)ccc32)cc1 [Example 2, 4-((6-chloro-3,4-dihydroquinolin-1(2H)-yl)methyl)-N-hydroxybenzamide] | IC50 [3]: > 30000 nM; IC50 [4]: > 30000 nM; IC50 [5]: 11000 nM; IC50 [6]: 4550 nM; IC50 [7]: 3340 nM; IC50 [8]: 3460 nM; IC50 [9]: > 30000 nM; IC50 [10]: 746 nM; tubulin acetylation [11]: robust tubulin acetylation; growth of glioblastoma cell line (GBM6) [12]: inhibit the growth; IC50 [13]: 4060 nM
3 | 11100 | 14.6 | 760 | O=C(NO)c1ccc(CN2CCCc3ccccc32)cc1 [Example 1, 4-((3,4-dihydroquinolin-1(2H)-yl)methyl)-N-hydroxybenzamide] | –
4 | 21100 ± 800 | 45.1 ± 0.05 | 468 | CC1(C)CCN(Cc2ccc(C(=O)NO)cc2)c2ccc(F)cc21 [Example 13, 4-((6-fluoro-4,4-dimethyl-3,4-dihydroquinolin-1(2H)-yl)methyl)-N-hydroxybenzamide] | –
5 | 1865 ± 5 | 3.43 ± 0.27 | 544 | O=C(NO)c1ccc(CN2CCCc3cc(F)c(Cl)cc32)cc1 [Example 7, 4-((7-chloro-6-fluoro-3,4-dihydroquinolin-1(2H)-yl)methyl)-N-hydroxybenzamide] | –
6 | – | – | – | CN1CCc2c(c3ccccc3n2Cc2ccc(C(=O)NO)cc2)C1 [Tubastatin A] | axonal transport defects and CMT phenotype [14]: corrects the axonal transport defects induced by HSPB1 mutations and rescues the CMT phenotype
7 | 14100 ± 1900 | 161 ± 3 | 88 | CC1(C)CCc2cc(F)ccc2N1Cc1ccc(C(=O)NO)cc1 [Example 10, 4-((6-fluoro-2,2-dimethyl-3,4-dihydroquinolin-1(2H)-yl)methyl)-N-hydroxybenzamide] | –
8 | 8430 ± 30 | 382 ± 20.5 | 22 | CC(c1ccc(C(=O)NO)cc1)N1CCCc2cc(Cl)ccc21 (centres unmarked) [Example 4, 4-(1-(6-chloro-3,4-dihydroquinolin-1(2H)-yl)ethyl)-N-hydroxybenzamide] | –
9 | 6690 ± 270 | 39.3 ± 0.3 | 170 | O=C(NO)c1ccc(CN2CCN(CC3CC3)c3ccccc32)cc1 [Example 15, 4-((4-(cyclopropylmethyl)-3,4-dihydroquinoxalin-1(2H)-yl)methyl)-N-hydroxybenzamide] | –
10 | – | – | – | CN(C)c1ccc(C(=O)NCCCCCNC(=O)CS)cc1 [DMA-PB, 4-dimethylamino-N-[5-(2-mercaptoacetylamino)pentyl]benzamide] | histone H3 acetylation and microglia inflammatory response [15]: increase histone H3 acetylation and reduce microglia inflammatory response
11 | 22000 ± 1550 | 33.6 ± 1.9 | 653 | CC(C)(C)OC(=O)N1CC(=O)N(Cc2ccc(C(=O)NO)cc2)c2ccccc21 [Example 18, tert-butyl 4-(4-(hydroxycarbamoyl)benzyl)-3-oxo-3,4-dihydroquinoxaline-1(2H)-carboxylate] | –
12 | – | – | – | O=C(CCCCCCC(=O)Nc1ccc([C@H]2O[C@@H](CSc3nc(-c4ccccc4)c(-c4ccccc4)o3)C[C@@H](c3ccc(CO)cc3)O2)cc1)NO [tubacin] | rescue of mice with colitis [16]: able to rescue mice
13 | 2600 ± 30 | 2 ± 0.1 | 1300 | O=C(NO)c1ccc(CN2CC[S+]([O-])c3ccccc32)cc1 (centres unmarked) [Example 17, N-hydroxy-4-((1-oxido-2,3-dihydro-4H-benzo[b][1,4]thiazin-4-yl)methyl)benzamide] | –
14 | 3220 ± 85 | 4.8 ± 0.78 | 670 | O=C(NO)c1ccc(CN2CCCc3cc(Cl)c(F)cc32)cc1 [Example 8, 4-((6-chloro-7-fluoro-3,4-dihydroquinolin-1(2H)-yl)methyl)-N-hydroxybenzamide] | –

Row | Structure (SMILES) | IC50 [1] [nM] | IC50 [2] [nM] | Selectivity HDAC1/HDAC6 [2] | further results
15 | O=C(NO)c1ccc(CN2CCCc3cc(F)ccc32)cc1 [Example 5, 4-((6-fluoro-3,4-dihydroquinolin-1(2H)-yl)methyl)-N-hydroxybenzamide] | 5235 ± 45 | 5.05 ± 0.23 | 1037 | –
16 | O=C(NO)c1ccc(Cn2c(=O)cnc3ccccc32)cc1 [Example 19, N-hydroxy-4-((2-oxoquinoxalin-1(2H)-yl)methyl)benzamide] | 1045 ± 5 | 1.2 ± 0.3 | 870 | –
17 | O=C(NO)c1ccc(CN2CCCc3cc(Cl)c(Cl)cc32)cc1 [Example 6, 4-((6,7-dichloro-3,4-dihydroquinolin-1(2H)-yl)methyl)-N-hydroxybenzamide] | 2620 ± 115 | 3.59 ± 0.1 | 728 | –
18 | CC1(C)CCc2cc(Cl)ccc2N1Cc1ccc(C(=O)NO)cc1 [Example 9, 4-((6-chloro-2,2-dimethyl-3,4-dihydroquinolin-1(2H)-yl)methyl)-N-hydroxybenzamide] | 19600 ± 2450 | 328 ± 15.5 | 60 | –
19 | O=C(NO)c1ccc(CN2CCSc3ccccc32)cc1 [Example 16, 4-((2,3-dihydro-4H-benzo[b][1,4]thiazin-4-yl)methyl)-N-hydroxybenzamide] | 7935 ± 25 | 6.1 ± 0.1 | 1300 | –
20 | CC1(C)CC(=O)N(Cc2ccc(C(=O)NO)cc2)c2ccc(Cl)cc21 [Example 11, 4-((6-chloro-4,4-dimethyl-2-oxo-3,4-dihydroquinolin-1(2H)-yl)methyl)-N-hydroxybenzamide] | 6500 ± 230 | 28.9 ± 1.1 | 225 | –
21 | O=C(NO)c1ccc(CN2CCNc3ccccc32)cc1 [Example 14, 4-((3,4-dihydroquinoxalin-1(2H)-yl)methyl)-N-hydroxybenzamide] | 8750 ± 1070 | 2.9 ± 0.4 | 3017 | –
22 | CC1(C)CCN(Cc2ccc(C(=O)NO)cc2)c2ccc(Cl)cc21 [Example 12, 4-((6-chloro-4,4-dimethyl-3,4-dihydroquinolin-1(2H)-yl)methyl)-N-hydroxybenzamide] | 19500 ± 700 | 37.8 ± 4.8 | 516 | –
